The values that follow come from US20100273805A1, “SULPHIDE BRIDGED DERIVATIVES AS MODULATORS OF MGLUR5 733” (AstraZeneca AB, priority 2009, published 2010).

SMILES strings stand for the structures.

One series has as its target T1, human mGluR5d (Homo sapiens, UniProt P41594).
T1 construct: expressed in transfected cells
In words: FLIPR assay, mobilization of intracellular calcium in cells expressing human mGluR5d. It is filed as cell-based. As to conditions: antagonism in cells expressing human mGluR5d, fluo-4 calcium signal; read-out: FLIPR hmGluR5d. The text has this: Functional Assessment of mGluR5 Antagonism in Cell Lines Expressing mGluR5D
The properties of the compounds of the invention can be analyzed using standard assays for pharmacological activity. Examples of glutamate receptor assays are well known in the art as described in for example Aramori et al., Neuron 8:757 (1992), Tanabe et al., Neuron 8:169 (1992), Miller et al., J. Neuroscience 15: 6103 (1995), Balazs, et al., J. Neurochemistry 69:151 (1997). The methodology described in these publications is incorporated herein by reference. Conveniently, the compounds of the invention can be studied by means of an assay (FLIPR) that measures the mobilization of intracellular calcium, [Ca^2+]i in cells expressing mGluR5 or another assay (IP3) that measures inositol phosphate accumulation.
Cells expressing human mGluR5d as described in WO97/05252 cultured in a mixture of high glucose DMEM with Glutamax (31966-021) (500 mL), 10% dialyzed fetal bovine serum (Hyclone #SH30079.03)(56 mL), 200 ug/mL Hygromycin B (Invitrogen 45-0430, 50 mg/mL) (2.2 mL), 200 ug/mL Zeocin (Invitrogen #R250-01; 100 mg/mL) (1.1 mL) are seeded at a density of 15,000 cells per well on a black poly-D Lysin coated 384-plate with clear bottom (BD Biocoat 356663). Cells are allowed to adhere over night before experiments. All assays are done in a buffer containing 146 mM NaCl, 5 mM KCl, 1 mM MgCl2, 1 mM CaCl2, 20 mM HEPES, 1 mg/mL glucose and 1 mg/mL BSA Fraction IV (pH 7.4). Cell cultures in the 384-well plates are loaded for 60 minutes in the above mentioned buffer containing 3 μM of the acetoxymethyl ester form of the fluorescent calcium indicator fluo-4 (Molecular Probes, Eugene, Oreg.) in 0.025% pluronic acid (a proprietary, non-ionic surfactant polyol—CAS Number 9003-11-6). Following the loading period, the fluo-4 buffer is removed and the cellplate is washed three times with fresh assay buffer. FLIPR experiments are done using a laser setting of 1.0 W and 0.4 second CCD camera shutter speed with excitation and emission wavelengths of 488 nm and 562 nm, respectively.
Each experiment is initiated with 20 μl of buffer present in each well of the cell plate when 7.5 μl from the antagonist plate is added. After 30 minutes incubation in the dark at 25° C., 20 μL from the agonist plate is added to the wells. The fluorescence signal is sampled 60 times at 1 second intervals followed by 20 samples at 6 seconds intervals immediately after the agonist addition. Responses are measured as the difference between the peak height of the response to agonist, less the background fluorescence within the sample period. IC50 determinations are made using a […] least squares fitting program.

Series [1] can be described thus: Determination of brain to plasma ratio in rat. As to conditions: brain and plasma, female Sprague Dawley rats, drug in brain over drug in plasma, read-out: Brain/Plasma Ratio of compound in Rat. Format: in vivo. As for the experimental part:
Brain to plasma ratios are estimated in female Sprague Dawley rats. The compound is dissolved in water or another appropriate vehicle. For determination of brain to plasma ratio the compound is administrated as a subcutaneous, or an intravenous bolus injection, or an intravenous infusion, or an oral administration. At a predetermined time point after the administration a blood sample is taken with cardiac puncture. The rat is terminated by cutting the heart open, and the brain is immediately retained. The blood samples are collected in heparinized tubes and centrifuged within 30 minutes, in order to separate the plasma from the blood cells. The plasma is transferred to 96-well plates and stored at −20° C. until analysis. The brains are divided in half, and each half is placed in a pre-tarred tube and stored at −20° C. until analysis. Prior to the analysis, the brain samples are thawed and 3 mL/g brain tissue of distilled water is added to the tubes. The brain samples are sonicated in an ice bath until the samples are homogenized. Both brain and plasma samples are precipitated with acetonitrile. After centrifugation, the supernatant is diluted with 0.2% formic acid. Analysis is performed on a short reversed-phase HPLC column with rapid gradient elution and MSMS detection using a triple quadrupole instrument with electrospray ionisation and Selected Reaction Monitoring (SRM) acquisition. Liquid-liquid extraction may be used as an alternative sample clean-up. The samples are extracted, by shaking, to an organic solvent after addition of a suitable buffer. An aliquot of the organic layer is transferred to a new vial and evaporated to dryness under a stream of nitrogen. After reconstitution of the residuals the samples are ready for injection onto the HPLC column.

T1 sequence (P41594 21-942 isoform P41594-3 limits assumed): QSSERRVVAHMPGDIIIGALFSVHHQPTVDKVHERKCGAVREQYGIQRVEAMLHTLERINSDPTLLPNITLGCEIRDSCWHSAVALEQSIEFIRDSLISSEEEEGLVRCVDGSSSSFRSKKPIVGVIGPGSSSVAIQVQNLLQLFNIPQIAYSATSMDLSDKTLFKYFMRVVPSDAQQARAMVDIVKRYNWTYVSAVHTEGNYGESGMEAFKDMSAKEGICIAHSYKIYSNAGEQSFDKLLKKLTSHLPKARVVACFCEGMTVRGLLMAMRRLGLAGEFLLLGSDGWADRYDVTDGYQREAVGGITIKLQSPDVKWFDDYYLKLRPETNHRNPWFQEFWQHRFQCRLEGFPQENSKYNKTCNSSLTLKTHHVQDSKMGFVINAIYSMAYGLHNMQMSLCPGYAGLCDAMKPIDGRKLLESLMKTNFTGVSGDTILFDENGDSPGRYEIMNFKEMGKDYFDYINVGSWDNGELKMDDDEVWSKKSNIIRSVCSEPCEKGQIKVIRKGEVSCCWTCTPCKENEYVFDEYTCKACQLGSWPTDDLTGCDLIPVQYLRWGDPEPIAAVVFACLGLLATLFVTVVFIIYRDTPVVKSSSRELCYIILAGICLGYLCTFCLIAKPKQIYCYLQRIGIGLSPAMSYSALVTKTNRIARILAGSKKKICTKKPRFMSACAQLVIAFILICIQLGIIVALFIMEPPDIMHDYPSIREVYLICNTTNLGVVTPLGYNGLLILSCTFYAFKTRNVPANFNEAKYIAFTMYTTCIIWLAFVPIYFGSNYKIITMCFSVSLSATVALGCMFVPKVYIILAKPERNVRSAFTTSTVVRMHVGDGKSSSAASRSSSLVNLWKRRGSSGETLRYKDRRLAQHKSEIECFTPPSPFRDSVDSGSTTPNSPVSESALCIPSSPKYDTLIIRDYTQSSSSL

For `Cc1cccc(-n2nnc([C@@H](C)Sc3nnc(-c4cc[nH]c(=O)c4)n3C)n2)c1` [Example 8.1, (R)-4-(4-Methyl-5-(1-(2-m-tolyl-2H-tetrazol-5-yl)ethylthio)-4H-1,2,4-triazol-3-yl)pyridin-2(1H)-one], the IC50 at human mGluR5d amounted to 19 nM. Further, the Kp in series [1] is less than 0.01.

`Cc1cccc(-n2nnc([C@@H](C)Sc3nnc(-c4ccn(C)c(=O)c4)n3C)n2)c1` [Example 8.2, (R)-1-Methyl-4-(4-methyl-5-(1-(2-m-tolyl-2H-tetrazol-5-yl)ethylthio)-4H-1,2,4-triazol-3-yl)pyridin-2(1H)-one]: the IC50 on human mGluR5d came out at 87 nM. In series [1], the Kp was 0.1.

As to `Cc1cccc(-c2nc([C@@H](C)Sc3nnc(-c4cc[nH]c(=O)c4)n3C)no2)c1` [Example 8.3], at human mGluR5d, the IC50 worked out at 24 nM. Also, in series [1], the Kp came out at 0.09.

Regarding `Cc1cccc(-c2nc([C@@H](C)Sc3nnc(-c4ccn(C)c(=O)c4)n3C)no2)c1` [Example 8.4, (R)-1-Methyl-4-(4-methyl-5-(1-(5-m-tolyl-1,2,4-oxadiazol-3-yl)ethylthio)-4H-1,2,4-triazol-3-yl)pyridin-2(1H)-one], the IC50 on human mGluR5d stood at 30 nM. Further, the Kp in series [1] turned out to be 0.16.

In the case of `Cc1cccc(-c2cc([C@@H](C)Sc3nnc(-c4cc[nH]c(=O)c4)n3C)no2)c1` [Example 8.5, (R)-4-(4-Methyl-5-(1-(5-m-tolylisoxazol-3-yl)ethylthio)-4H-1,2,4-triazol-3-yl)pyridin-2(1H)-one], the IC50 at human mGluR5d was 146 nM. The Kp in series [1] is less than 0.01.

As to `Cc1cccc(-c2cc([C@@H](C)Sc3nnc(-c4ccn(C)c(=O)c4)n3C)no2)c1` [Example 8.6, (R)-1-Methyl-4-(4-methyl-5-(1-(5-m-tolylisoxazol-3-yl)ethylthio)-4H-1,2,4-triazol-3-yl)pyridin-2(1H)-one], the IC50 at human mGluR5d was 380 nM. Besides, the Kp in series [1] was determined as 0.02.

Take `Cc1cccc(-c2cc([C@@H](C)Sc3nnc(-c4cn[nH]c(=O)c4)n3C)no2)c1` [Example 8.7, (R)-5-(4-Methy1-5-(1-(5-m-tolylisoxazol-3-yl)ethylthio)-4H-1,2,4-triazol-3-yl)pyridazin-3(2H)-one]: at human mGluR5d, the IC50 was determined as 19 nM. Further, the Kp in series [1] was 0.26.

For `Cc1cccc(-n2nnc([C@@H](C)Sc3nnc(-c4cn[nH]c(=O)c4)n3C)n2)c1` [Example 8.8, (R)-5-(4-Methyl-5-(1-(2-m-tolyl-2H-tetrazol-5-yl)ethylthio)-4H-1,2,4-triazol-3-yl)pyridazin-3(2H)-one], the IC50 on human mGluR5d stood at 18 nM. Also, the Kp in series [1] is less than 0.01.

Take `C[C@@H](Sc1nnc(-c2cn[nH]c(=O)c2)n1C)c1nnn(-c2cccc(Cl)c2)n1` [Example 8.9, (R)-5-(5-(1-(2-(3-Chlorophenyl)-2H-tetrazol-5-yl)ethylthio)-4-methyl-4H-1,2,4-triazol-3-yl)pyridazin-3(2H)-one]: the IC50 at human mGluR5d amounted to 18 nM. Further, in series [1], the Kp was less than 0.015.

For `Cc1cccc(-c2nc([C@@H](C)Sc3nnc(-c4cn[nH]c(=O)c4)n3C)no2)c1` [Example 8.10, (R)-5-(4-Methyl-5-(1-(5-m-tolyl-1,2,4-oxadiazol-3-yl)ethylthio)-4H-1,2,4-triazol-3-yl)pyridazin-3(2H)-one], the IC50 at human mGluR5d amounted to 41 nM. For the same molecule, the Kp in series [1] is 0.04.
